Laboratory results: PubChem BioAssay AID651919 (Sanford-Burnham Center for Chemical Genomics, 2012)
Several values for one entry are separate records, joined by “and”; a condition that tells them apart may be missing. Equal values may be shown once. Activity calls are given as the source filed them.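 The calls were made as follows: active = CXCR6 IC50 below 5 µM, and the CXCR5 counter screen gives no IC50 under five times the CXCR6 IC50; inactive = the rest.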

Assays:
[1] = biological target: C-X-C chemokine receptor type 5 (Homo sapiens) (UniProt P32302); assay: antagonism of CXCR6 versus CXCR5 signaling – cell-based, CHO-K1 PathHunter beta-arrestin, luminescence, set 4, selectivity assay for CXCR6 antagonist project, profiling panel (AID 651919); conditions: CHO-K1 PathHunter CXCR5 beta-arrestin, CXCR5, mean of runs
[2] = biological target: C-X-C chemokine receptor type 6 (Homo sapiens) (UniProt O00574); assay: as above; conditions: CHO-K1 PathHunter CXCR6 beta-arrestin, CXCR6, mean of runs
Chain of C-X-C chemokine receptor type 6 (Homo sapiens) (O00574 whole entry, looked up): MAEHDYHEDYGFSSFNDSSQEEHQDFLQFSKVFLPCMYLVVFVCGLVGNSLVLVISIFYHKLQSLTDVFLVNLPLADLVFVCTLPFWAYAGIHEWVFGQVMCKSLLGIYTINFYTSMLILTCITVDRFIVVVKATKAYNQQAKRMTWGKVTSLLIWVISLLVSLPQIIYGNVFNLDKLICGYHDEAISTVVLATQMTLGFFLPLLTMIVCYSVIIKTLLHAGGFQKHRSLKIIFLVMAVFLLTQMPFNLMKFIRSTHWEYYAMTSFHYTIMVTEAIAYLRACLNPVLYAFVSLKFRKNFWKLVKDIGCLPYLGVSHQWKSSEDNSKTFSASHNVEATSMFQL

Row | Structure (SMILES) | IC50 [1] | IC50 [2]
1 | COc1ccc(NC(=O)CN2C3CCCC2CC(NC(=O)c2ccc(OC)c(OC)c2)C3)cc1 (stereo not drawn) | > 79 µM (inactive) | > 79 µM (inactive)
2 | COc1ccc(C(=O)NC2CC3CCCC(C2)N3CC(=O)Nc2ccc(C)cc2)cc1OC (stereo not drawn) | > 79 µM (inactive) | > 79 µM (inactive)
3 | COc1ccc(C(=O)NC2CC3CCCC(C2)N3CC(=O)Nc2ccccc2)cc1 (stereo not drawn) | > 79 µM (inactive) | > 79 µM (inactive)
4 | COc1cc(C(=O)NC2CC3CCCC(C2)N3CC(=O)Nc2ccc(C)cc2)cc(OC)c1OC (stereo not drawn) | > 79 µM (inactive) | inactive
5 | COc1cccc(C(=O)NC2CC3CCCC(C2)N3CC(=O)Nc2ccc(Cl)cc2)c1 (stereo not drawn) | > 79 µM (inactive) | > 79 µM (inactive)
6 | COc1cc(OC)cc(C(=O)NC2CC3CCCC(C2)N3CC(=O)Nc2ccc(Cl)cc2)c1 (stereo not drawn) | > 79 µM (inactive) | > 79 µM (inactive)
7 | COc1cc(C(=O)NC2CC3CCCC(C2)N3CC(=O)Nc2ccccc2)cc(OC)c1OC (stereo not drawn) | > 79 µM (inactive) | 3.4 µM and 4.74 µM
8 | Cc1ccc(NC(=O)CN2C3CCCC2CC(NC(=O)c2ccc4c(c2)OCO4)C3)cc1 (stereo not drawn) | > 79 µM (inactive) | > 79 µM (inactive)
9 | COc1ccc(C(=O)NC2CC3CCCC(C2)N3CC(=O)Nc2ccc(Cl)cc2)cc1OC (stereo not drawn) | > 79 µM (inactive) | > 79 µM (inactive)
10 | COc1cc(C(=O)NC2CC3CCCC(C2)N3CC(=O)Nc2ccccc2Cl)cc(OC)c1OC (stereo not drawn) | > 79 µM (inactive) | 0.356 µM and 0.137 µM
11 | COc1ccccc1NC(=O)CN1C2CCCC1CC(NC(=O)c1cc(OC)c(OC)c(OC)c1)C2 (stereo not drawn) | > 79 µM (inactive) | 1.85 µM
12 | COc1cc(OC)cc(C(=O)NC2CC3CCCC(C2)N3CC(=O)Nc2ccccc2)c1 (stereo not drawn) | 12.5 µM | > 79 µM (inactive)
13 | COc1ccc(C(=O)NC2CC3CCCC(C2)N3CC(=O)Nc2ccc(F)cc2)cc1 (stereo not drawn) | > 79 µM (inactive) | > 79 µM (inactive)
14 | O=C(CN1C2CCCC1CC(NC(=O)c1ccccc1)C2)Nc1ccccc1 (stereo not drawn) | > 79 µM (inactive) | > 79 µM (inactive)
15 | O=C(CN1C2CCCC1CC(NC(=O)c1ccc3c(c1)OCO3)C2)Nc1ccccc1 (stereo not drawn) | > 79 µM (inactive) | > 79 µM (inactive)
16 | COc1cccc(C(=O)NC2CC3CCCC(C2)N3CC(=O)Nc2ccc(C)cc2)c1 (stereo not drawn) | > 79 µM (inactive) | > 79 µM (inactive)
17 | COc1ccc(NC(=O)CN2C3CCCC2CC(NC(=O)c2cc(OC)cc(OC)c2)C3)cc1 (stereo not drawn) | > 79 µM (inactive) | > 79 µM (inactive)

Row | Structure (SMILES) | IC50 [1] | IC50 [2]
18 | COc1ccc(C(=O)NC2CC3CCCC(C2)N3CC(=O)Nc2ccc(C)cc2)cc1 (stereo not drawn) | > 79 µM (inactive) | > 79 µM (inactive)
19 | O=C(CN1C2CCCC1CC(NC(=O)c1ccc3c(c1)OCO3)C2)Nc1ccc(F)cc1 (stereo not drawn) | > 79 µM (inactive) | > 79 µM (inactive)
20 | COc1cc(OC)cc(C(=O)NC2CC3CCCC(C2)N3CC(=O)Nc2ccc(C)cc2)c1 (stereo not drawn) | > 79 µM (inactive) | > 79 µM (inactive)
21 | COc1cc(C(=O)NC2CC3CCCC(C2)N3CC(=O)Nc2ccc(Cl)cc2)cc(OC)c1OC (stereo not drawn) | > 79 µM (inactive) | 1.48 µM
22 | COc1ccc(NC(=O)CN2C3CCCC2CC(NC(=O)c2ccc4c(c2)OCO4)C3)cc1 (stereo not drawn) | > 79 µM (inactive) | > 79 µM (inactive)
23 | O=C(CN1C2CCCC1CC(NC(=O)c1ccc3c(c1)OCO3)C2)Nc1ccc(Cl)cc1 (stereo not drawn) | > 79 µM (inactive) | > 79 µM (inactive)
24 | COc1ccc(CN2C3CCCC2CC(NC(=O)c2cc(OC)c(OC)c(OC)c2)C3)cc1 (stereo not drawn) | > 79 µM (inactive) | inactive
25 | COc1ccc(NC(=O)CN2C3CCCC2CC(NC(=O)c2ccc(OC)cc2)C3)cc1 (stereo not drawn) | > 79 µM (inactive) | > 79 µM (inactive)
26 | COc1cc(C(=O)NC2CC3CCCC(C2)N3CC(=O)Nc2ccc(F)cc2)cc(OC)c1OC (stereo not drawn) | > 79 µM (inactive) | inactive
27 | COc1cccc(C(=O)NC2CC3CCCC(C2)N3CC(=O)Nc2ccccc2)c1 (stereo not drawn) | > 79 µM (inactive) | > 79 µM (inactive)
28 | COc1cc(OC)cc(C(=O)NC2CC3CCCC(C2)N3CC(=O)Nc2ccc(F)cc2)c1 (stereo not drawn) | 43.4 µM | > 79 µM (inactive)
29 | COc1ccc(C(=O)NC2CC3CCCC(C2)N3CC(=O)Nc2ccc(Cl)cc2)cc1 (stereo not drawn) | > 79 µM (inactive) | > 79 µM (inactive)
30 | COc1ccc(NC(=O)CN2C3CCCC2CC(NC(=O)c2cccc(OC)c2)C3)cc1 (stereo not drawn) | > 79 µM (inactive) | > 79 µM (inactive)
31 | COc1cccc(C(=O)NC2CC3CCCC(C2)N3CC(=O)Nc2ccc(F)cc2)c1 (stereo not drawn) | > 79 µM (inactive) | > 79 µM (inactive)
32 | COc1ccc(NC(=O)CN2C3CCCC2CC(NC(=O)c2cc(OC)c(OC)c(OC)c2)C3)cc1 (stereo not drawn) | > 79 µM (inactive) | inactive
33 | COc1ccc(C(=O)NC2CC3CCCC(C2)N3CC(=O)Nc2ccccc2)cc1OC (stereo not drawn) | > 79 µM (inactive) | > 79 µM (inactive)
34 | COc1ccc(C(=O)NC2CC3CCCC(C2)N3CC(=O)Nc2ccc(F)cc2)cc1OC (stereo not drawn) | > 79 µM (inactive) | > 79 µM (inactive)
